Patent US6110963A, “Aryl-oxo-acetic acids useful in the treatment of insulin resistance and hyperglycemia” (American Home Products Corporation, priority 1999, dated 2000)
Like-named read-outs stand apart in the source and are kept apart here.

Columns and labels:
[1] = target: T1, Human recombinant PTP1B (hPTP1B) (Homo sapiens, UniProt P18031); type: biochemical; settings: for IC50: recombinant PTP1B, malachite green phosphate detection; for inhibition at 2.5 µM: read-out: change of PTP1B activity (percent of phosphatase control) at single concentration
T1 construct: made in house
T1 sequence (P18031 1-435): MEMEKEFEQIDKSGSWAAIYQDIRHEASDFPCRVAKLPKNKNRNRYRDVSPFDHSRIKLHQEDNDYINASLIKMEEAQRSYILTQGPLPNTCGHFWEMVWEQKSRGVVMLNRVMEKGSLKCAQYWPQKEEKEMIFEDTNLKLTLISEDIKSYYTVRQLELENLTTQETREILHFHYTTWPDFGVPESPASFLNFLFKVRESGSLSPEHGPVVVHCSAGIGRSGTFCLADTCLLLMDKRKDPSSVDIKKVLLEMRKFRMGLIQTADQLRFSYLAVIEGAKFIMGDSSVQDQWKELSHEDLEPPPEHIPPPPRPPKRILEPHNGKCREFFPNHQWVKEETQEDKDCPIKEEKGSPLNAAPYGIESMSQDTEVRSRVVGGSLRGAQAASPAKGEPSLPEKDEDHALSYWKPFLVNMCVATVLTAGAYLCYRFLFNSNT

[2] = test system: rat hepatic microsomal PTPases; settings: PTPase activity, compound at 50 μM, rat liver microsomes
diabetic (ob/ob) mice = test: Blood glucose lowering activity in diabetic (ob/ob) mice; type: in vivo, mouse; settings: 100 mg/Kg; for % Change Glucose from Vehicle: plasma glucose
Source text: The procedures used and results obtained are briefly described below.
The non-insulin dependent diabetic (NIDDM) syndrome can be typically characterizes by obesity, hyperglycemia, abnormal insulin secretion, hyperinsulinemia and insulin resistance.
In each test procedure, mice [Male or female ob/ob (C57 B1/6J) and their lean litermates (ob/+ or +/+, Jackson Laboratories) ages 2 to 5 months (10 to 65 g)] of a similar age were randomized according to body weight into 4 groups of 10 mice. The mice were housed 5 per cage and are maintained on normal rodent chow with water ad libitum. Mice received test compound daily by gavage (suspended in 0.5 ml of 0.5% methyl cellulose); dissolved in the drinking water; or admixed in the diet. The dose of compounds given ranges from 2.5 to 200 mg/kg body weight/day. The dose is calculated based on the fed weekly body weight and is expressed as active moiety. […] Control mice received vehicle only.
On the morning of Day 4, 7 or 14 two drops of blood (approximetly 50 ul) were collected into sodium fluoride containing tubes either from the tail vein or after decapitation. For those studies in which the compound was administered daily by gavage the blood samples were collected two hours after compound administration. The plasma was isolated by centrifugation and the concentration of glucose is measured enzymatically on an Abbott V. P. Analyzer.
For each mouse, the percentage change in plasma glucose on Day 4, 7 or 14 is calculated relative to the mean plasma glucose of the vehicle treated mice. Analysis of variance followed by Dunett's Comparison Test (one-tailed) are used to estimate the significant difference between the plasma glucose values from the control group and the individual compound treated groups (CMS SAS Release 5.18).

| IC50 [1] [nM] | % Change from Control [2] [%] | Structure (SMILES) | other results |
| --- | --- | --- | --- |
| 1160 | -31 | CCCCc1oc2ccccc2c1C(O)c1ccc2cc(O)ccc2c1 (stereo not shown) [Example 1] |  |
| 1350 | -37 | CCCCc1oc2ccccc2c1Cc1ccc2cc(O)ccc2c1 [Example 2] |  |
| 330 | -37 | CCCCc1oc2ccccc2c1Cc1ccc2c(Br)c(O)ccc2c1 [Example 3, 1-Bromo-6-(2-butyl-benzofuran-3-ylmethyl)-naphthalen-2-ol] |  |
| 1440 | -65 | CCCCc1oc2ccccc2c1Cc1ccc2c(Br)c(OCC(=O)O)ccc2c1 [Example 4, [1-Bromo-6-(2-butyl-benzofuran-3-ylmethyl)-naphthalen-2-yloxy]-acetic acid] |  |
| 370 | -59 | CCCCc1oc2ccccc2c1Cc1ccc2c(Br)c(OC(Cc3ccccc3)C(=O)O)ccc2c1 (stereo not shown) [Example 5, 2-[1-Bromo-6-(2-butyl-benzofuran-3-ylmethyl)-naphthalen-2-yloxy]-3-phenylpropionic acid] | % Change Glucose from Vehicle (diabetic (ob/ob) mice): -25.6% |
| 700 | -62 | CCCCc1oc2ccccc2c1Cc1ccc2c(Br)c(OCc3nnn[nH]3)ccc2c1 [Example 6, 5-[1-Bromo-6-(2-butyl-benzofuran-3-ylmethyl)-naphthalen-2-yloxymethyl]-1H-tetrazole] |  |
| 310 | -24 | CCCCc1oc2ccccc2c1Cc1ccc2c(I)c(O)ccc2c1 [Example 7, 6-(2-Butyl-benzofuran-3-ylmethyl)-1-iodo-naphthalen-2-ol] |  |
| 310 | -58 | CCCCc1oc2ccccc2c1Cc1ccc2c(I)c(OC(Cc3ccccc3)C(=O)O)ccc2c1 (stereo not shown) [Example 8] | % Change Insulin from Vehicle (diabetic (ob/ob) mice): -33%; % Change Glucose from Vehicle (diabetic (ob/ob) mice): -11% |
| 480 |  | CCCCc1oc2ccccc2c1C(O)c1ccc2c(Br)c(O)ccc2c1 (stereo not shown) [Example 9, 1-Bromo-6-[(2-butyl-benzofuran-3-yl)-hydroxy-methyl]-naphthalen-2-ol] | % Change Insulin from Vehicle (diabetic (ob/ob) mice): -38% |
|  | -69 | CCCCc1oc2ccccc2c1C(=O)c1ccc2c(Br)c(OCC(=O)O)ccc2c1 [Example 10, [1-Bromo-6-(2-butyl-benzofuran-3-carbonyl)-naphthalen-2-yloxy]-acetic acid] | inhibition at 2.5 µM ([1]; compound at 2.5 uM): 46% |
| 1230 | -77 | CCCCc1oc2ccccc2c1C(=O)c1ccc2c(Br)c(OC(Cc3ccccc3)C(=O)O)ccc2c1 (stereo not shown) [Example 11, 2-[1-Bromo-6-(2-butyl-benzofuran-3-carbonyl)-naphthalen-2-yloxy]-3-phenylpropionic acid] |  |
| 1130 | -70 | CCCCc1oc2ccccc2c1C(=O)c1ccc2c(Br)c(OCc3nnn[nH]3)ccc2c1 [Example 12, [5-bromo-6-(1H-tetrazol-5-ylmethoxy)-naphthalen-2-yl]-(2-butyl-benzofuran-3-yl)methanone] | % Change Insulin from Vehicle (diabetic (ob/ob) mice): 12%; % Change Glucose from Vehicle (diabetic (ob/ob) mice): -24.8% |
| 1040 | -37 | Oc1ccc2cc(Cc3c(Cc4ccccc4)sc4ccccc34)ccc2c1Br [Example 13, 6-(2-Benzyl-benzo[b]thiophen-3-ylmethyl)-1-bromo-naphthalen-2-ol] |  |
| 230 |  | CCCCc1oc2ccccc2c1C(O)c1ccc(-c2ccc(O)cc2)cc1 (stereo not shown) [Example 14, 4'-[(2-Butyl-benzofuran-3-yl)-hydroxy-methyl]-biphenyl-4-ol] |  |
|  | -20 | CCCCc1oc2ccccc2c1C(=O)c1ccc(-c2ccc(O)cc2)cc1 [Example 15, (2-Butyl-benzofuran-3-yl)-(4'-hydroxy-biphenyl-4-yl)-methanone] | inhibition at 2.5 µM [1]: 53% |
| 1190 | -28 | CCCCc1oc2ccccc2c1Cc1ccc(-c2ccc(O)cc2)cc1 [Example 16] |  |
| 1150 | -76 | CCCCc1oc2ccccc2c1Cc1ccc(-c2ccc(OCC(=O)O)cc2)cc1 [Example 17] |  |

| IC50 [1] [nM] | % Change from Control [2] [%] | Structure (SMILES) | other results |
| --- | --- | --- | --- |
| 510 |  | CCCCc1oc2ccccc2c1Cc1ccc(-c2ccc(OCc3nnn[nH]3)cc2)cc1 [Example 18] |  |
| 540 | -24 | CCCCc1oc2ccccc2c1C(O)c1ccc(-c2ccc(OCC(=O)O)cc2)cc1 (stereo not shown) [Example 19, {4'-[(2-Butyl-benzofuran-3-yl)-hydroxy-methyl]-biphenyl-4-yloxy}-acetic acid] |  |
| 1400 | -22 | CCCCc1oc2ccccc2c1C(O)c1ccc(-c2cc(Br)c(O)c(Br)c2)cc1 (stereo not shown) [Example 20, 3,5-Dibromo-4'-[(2-butyl-benzofuran-3-yl)-hydroxy-methyl]-biphenyl-4-ol] |  |
|  |  | Oc1ccc(-c2ccc(C(O)c3c(Cc4ccccc4)sc4ccccc34)cc2)cc1 (stereo not shown) [Example 21, 4'-[(2-Benzyl-benzorblthiophen-3-yl)-hydroxy-methyl]-biphenyl-4-ol] | inhibition at 2.5 µM ([1]; compound at 2.5 uM): 36% |
|  | -38 | CCCCc1oc2ccccc2c1C(O)c1ncc(-c2ccc(OC)cc2)o1 (stereo not shown) [Example 22, (2-Butyl-benzofuran-3-yl)-[5-(4-methoxy-phenyl)-oxazole-2-yl]-methanol] |  |
|  |  | CCCCc1oc2ccccc2c1C(=O)c1ncc(-c2ccc(OC)cc2)o1 [Example 23, (2-Butyl-benzofuran-3-yl)-[5-(4-methoxy-phenyl)-oxazole-2-yl]-methanone] | inhibition at 2.5 µM ([1]; compound at 2.5 uM): 55% |
|  |  | CCCCc1oc2ccccc2c1Cc1ncc(-c2ccc(OC)cc2)o1 [Example 24, 2-(2-Butyl-benzofuran-3-ymethyl)-5-(4-methoxy-phenyl)-oxazole] | inhibition at 2.5 µM ([1]; compound at 2.5 uM): 35% |
| 1360 |  | CCCCc1oc2ccccc2c1C(=O)c1nc(Br)c(-c2ccc(OC)cc2)o1 [Example 25, [4-Bromo-5-(4-methoxy-phenyl)-oxazol-2-yl]-(2-butyl-benzofuran-3-yl)-methanone] |  |
| 1240 |  | CCCCc1oc2cc(Br)ccc2c1Cc1nc(Br)c(-c2ccc(OC)cc2)o1 [Example 26] |  |
| 1000 |  | CCCCc1oc2ccccc2c1C(Sc1nc2ccccc2s1)c1ccc2cc(O)ccc2c1 (stereo not shown) [Example 27] |  |
| 1160 |  | CCCCc1oc2ccccc2c1C(Sc1nc2ccccc2s1)c1ccc(-c2ccc(O)cc2)cc1 (stereo not shown) [Example 28, 4'-[(2-Butyl-benzofuran-3-yl)-(benzothiazol-2-ylsulfanyl)-methyl]-biphenyl-4-ol] |  |
| 1860 | -24 | CCCCCCCC(Sc1nc2ccccc2s1)c1cc2ccccc2s1 (stereo not shown) [Example 29, 2-[1-(Benzorblthiophen-2-yl)-octylsulfanyl]-benzothiazole] |  |
| 580 |  | CCCCc1oc2ccccc2c1C(Sc1nc2ccccc2s1)c1ccc(Br)cc1 (stereo not shown) [Example 30, 2-[(4-Bromo-phenyl)-(2-butyl-benzofuran-3-yl)-methylsulfanyl]-benzothiazole] |  |
| 590 |  | CCCCc1oc2ccccc2c1C(Sc1nc2ccccc2s1)c1ccc(Br)c2ccccc12 (stereo not shown) [Example 31, 2-[(4-Bromo-naphthalen-1-yl)-(2-butyl-benzofuran-3-yl)-methylsulfanyl]-benzothiazole] |  |
| 1000 |  | CCCCc1oc2ccccc2c1C(Sc1nc2ccccc2s1)c1ccccc1 (stereo not shown) [Example 32] |  |
|  |  | Brc1cc(Cc2ccc3ccccc3c2)cc(Br)c1OCc1nnn[nH]1 [Example 34, 5-[2,6-Dibromo-4-(naphthalen-2-ylmethyl)-phenoxymethyl]-1H-tetrazole] | % Change Insulin from Vehicle (diabetic (ob/ob) mice): -18%; % Change Glucose from Vehicle (diabetic (ob/ob) mice): -27.8% |
